From PubChem BioAssay AID330 (DTP/NCI, 2004)
“And” between values parts separate entries of the source, which are not always exact repeats. Equal values may be shown once. Inconclusive results and toxic doses are left out. Rule for the calls: active = survival T/C of 150% or more; inactive = T/C below 125% in these data. Peptide text beside a SMILES is read from it. * marks the point of attachment. Cbz = O=C(OCc1ccccc1)*

Test system: P388 leukemia ip, CD2F1 mice, survival T/C
Assay: NCI In Vivo Anticancer Drug Screen. Data for tumor model P388 Leukemia (intraperitoneal) in CD2F1 (CDF1) mice
Settings: endpoint: median survival time, higher = longer survival
How it was run: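 Mice carrying the transplanted tumor received test compound or vehicle. Survival was recorded in each group, and the value is the treated-group measurement divided by that of the vehicle-treated control group.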

[1] = dose: 60.0 mg/kg/injection, schedule: Q01DX005 (ip), vehicle: saline with Tween-80
[2] = dose: 120.0 mg/kg/injection, schedule: Q01DX005 (ip), vehicle: saline with Tween-80
[3] = dose: 12.5 mg/kg/injection, schedule: Q01DX005 (ip), vehicle: Klucel (hydroxypropylcellulose) (HPC)
[4] = dose: 25.0 mg/kg/injection, schedule: Q01DX005 (ip), vehicle: Klucel (hydroxypropylcellulose) (HPC)
[5] = dose: 50.0 mg/kg/injection, schedule: Q01DX005 (ip), vehicle: Klucel (hydroxypropylcellulose) (HPC)
[6] = dose: 100.0 mg/kg/injection, schedule: Q01DX005 (ip), vehicle: Klucel (hydroxypropylcellulose) (HPC)
[7] = dose: 25.0 mg/kg/injection, schedule: Q01DX009 (ip), vehicle: saline with Tween-80
[8] = dose: 50.0 mg/kg/injection, schedule: Q01DX009 (ip), vehicle: saline with Tween-80
[9] = dose: 100.0 mg/kg/injection, schedule: Q01DX009 (ip), vehicle: saline with Tween-80
[10] = dose: 200.0 mg/kg/injection, schedule: Q01DX009 (ip), vehicle: saline with Tween-80
[11] = dose: 60.0 mg/kg/injection, schedule: Q01DX005 (ip), vehicle: Klucel (hydroxypropylcellulose) (HPC)
[12] = dose: 120.0 mg/kg/injection, schedule: Q01DX005 (ip), vehicle: Klucel (hydroxypropylcellulose) (HPC)
[13] = dose: 50.0 mg/kg/injection, schedule: Q01DX005 (ip), vehicle: saline with Tween-80
[14] = dose: 100.0 mg/kg/injection, schedule: Q01DX005 (ip), vehicle: saline with Tween-80
[15] = dose: 200.0 mg/kg/injection, schedule: Q01DX005 (ip), vehicle: saline with Tween-80
[16] = dose: 50.0 mg/kg/injection, schedule: Q01DX009 (ip), vehicle: Klucel (hydroxypropylcellulose) (HPC)
[17] = dose: 100.0 mg/kg/injection, schedule: Q01DX009 (ip), vehicle: Klucel (hydroxypropylcellulose) (HPC)
[18] = dose: 200.0 mg/kg/injection, schedule: Q01DX009 (ip), vehicle: Klucel (hydroxypropylcellulose) (HPC)
[19] = dose: 240.0 mg/kg/injection, schedule: Q01DX005 (ip), vehicle: saline with Tween-80

Measured: T/C

C/C=C/c1cc(OC)c2c(c1)[C@H](C)C(c1ccc(O)c(OC)c1)O2 (stereo not given in full)
inactive: dose: 37.5 mg/kg/injection, schedule: Q01DX005 (ip), vehicle: Klucel (hydroxypropylcellulose) (HPC) 106 % of control | dose: 75.0 mg/kg/injection, schedule: Q01DX005 (ip), vehicle: Klucel (hydroxypropylcellulose) (HPC) 97 % of control | dose: 150.0 mg/kg/injection, schedule: Q01DX005 (ip), vehicle: Klucel (hydroxypropylcellulose) (HPC) 95 % of control

N=c1ncn(C2OC(CO)C(O)C2O)c2nc[nH]c12 (stereo not given)
inactive: dose: 6.25 mg/kg/injection, schedule: Q01DX009 (ip), vehicle: Klucel (hydroxypropylcellulose) (HPC) 113 % of control | dose: 12.5 mg/kg/injection, schedule: Q01DX009 (ip), vehicle: Klucel (hydroxypropylcellulose) (HPC) 108 % of control

CN(C)CCOc1cccc2c1CCC2
inactive: [1] 107 % of control | [2] 87 % of control

CCN(CC)CCOC(=O)Cc1ccc2c(=O)cc(-c3ccc(C)cc3)oc2c1
inactive: [3] 109 % of control | [4] 108 % of control | [5] 103 % of control and 114 % of control | [6] 121 % of control

CCCCOCC1CO1 (stereo not given)
inactive: [7] 100 % of control | [8] 100 % of control | [9] 95 % of control | [10] 90 % of control

CC1Nc2nc(N)[nH]c(=O)c2NC1C (stereo not given)
inactive: dose: 25.0 mg/kg/injection, schedule: Q01DX005 (ip), vehicle: saline 97 % of control | dose: 50.0 mg/kg/injection, schedule: Q01DX005 (ip), vehicle: saline 100 % of control and 97 % of control | dose: 100.0 mg/kg/injection, schedule: Q01DX005 (ip), vehicle: saline 101 % of control and 97 % of control | dose: 200.0 mg/kg/injection, schedule: Q01DX005 (ip), vehicle: saline 101 % of control and 95 % of control

CCOCN(COCC)c1ccccn1
inactive: [7] 100 % of control | [8] 105 % of control and 116 % of control

CC(=O)Nc1cc2cc(NC(=O)C(Cl)(Cl)Cl)ccc2oc1=O
inactive: [11] 98 % of control | [12] 100 % of control | dose: 240.0 mg/kg/injection, schedule: Q01DX005 (ip), vehicle: Klucel (hydroxypropylcellulose) (HPC) 100 % of control

COC(=O)C(CC(C)C)NC(=O)C(CO)NC(=O)OCc1ccccc1 (stereo not drawn) (Cbz-Ser-Leu-OMe; configuration not given here)
inactive: [13] 100 % of control | [14] 99 % of control | [15] 100 % of control

CCCCCCCCCCCCOC(=O)c1ccc(I)cc1
inactive: [8] 97 % of control | [9] 97 % of control | [10] 102 % of control

C1COCCOCCOCCO1.[Br][Sn]([Br])([Br])[Br]
inactive: [11] 103 % of control | [12] 107 % of control

Cc1nnc(NC(=O)c2ccc(Cl)c(Cl)c2)s1
inactive: [16] 100 % of control | [17] 94 % of control | [18] 89 % of control

CC1(C)OC2C(COC(=O)c3ccccc3)OC(n3cnc4c(=NC(=O)c5ccccc5)n(C(=O)c5ccccc5)cnc43)C2O1 (stereo not given)
inactive: [5] 94 % of control | [6] 94 % of control

CN(CCN1C(=O)c2cccc3cccc(c23)C1=O)CCN1C(=O)c2cccc3cccc(c23)C1=O
inactive: [13] 95 % of control | [1] 95 % of control | [14] 87 % of control | [15] 91 % of control | [19] 88 % of control

Cc1ccc(C)n1N1CCOCC1
inactive: [1] 108 % of control | [2] 101 % of control | [19] 100 % of control

CC(=O)NC(CNC(C)C)C(=O)O (stereo not given)
inactive: dose: 50.0 mg/kg/injection, schedule: Q01DX001 (ip), vehicle: Klucel (hydroxypropylcellulose) (HPC) 102 % of control | dose: 100.0 mg/kg/injection, schedule: Q01DX001 (ip), vehicle: Klucel (hydroxypropylcellulose) (HPC) 106 % of control | dose: 200.0 mg/kg/injection, schedule: Q01DX001 (ip), vehicle: Klucel (hydroxypropylcellulose) (HPC) 98 % of control

Cc1ccc2[nH]c(=S)n(CCc3ccccc3)c(=O)c2c1
inactive: [16] 99 % of control | [17] 97 % of control | [18] 97 % of control

CCN1C(=O)C2C3C=CC(C2C1=O)C1C2C(=O)N(CC)C(=O)C2C31 (stereo not given)
inactive: dose: 100.0 mg/kg/injection, schedule: Q01DX001 (ip), vehicle: suspension in saline 99 % of control | dose: 200.0 mg/kg/injection, schedule: Q01DX001 (ip), vehicle: suspension in saline 96 % of control | dose: 400.0 mg/kg/injection, schedule: Q01DX001 (ip), vehicle: suspension in saline 100 % of control

c1cc[n+](Cc2ccc3ccccc3c2)c(C2OCCO2)c1
inactive: dose: 5.0 mg/kg/injection, schedule: Q01DX009 (ip), vehicle: saline 100 % of control | dose: 10.0 mg/kg/injection, schedule: Q01DX009 (ip), vehicle: saline 100 % of control | dose: 20.0 mg/kg/injection, schedule: Q01DX009 (ip), vehicle: saline 104 % of control

CCOC(=O)Nc1c(CC(C)(C)O)n[nH]c1C
inactive: [13] 103 % of control | [14] 100 % of control | [15] 100 % of control

COc1ccc(-c2cc(=O)cc(C(N)=O)o2)cc1
inactive: [1] 101 % of control | [2] 97 % of control | [19] 96 % of control

COc1ccc(-c2nccc3cc(OC)c(OC)cc23)cc1O
inactive: dose: 25.0 mg/kg/injection, schedule: Q01DX009 (ip), vehicle: other 100 % of control | dose: 50.0 mg/kg/injection, schedule: Q01DX009 (ip), vehicle: other 86 % of control | dose: 100.0 mg/kg/injection, schedule: Q01DX009 (ip), vehicle: other 86 % of control

COC(=O)[C@H]1[C@H]2C[C@@H]3c4[nH]c5cc(OC)ccc5c4CCN3C[C@H]2C[C@@H](OC(=O)c2cccc(N(C)C)c2)[C@@H]1OC
inactive: [3] 95 % of control | [4] 94 % of control | [5] 116 % of control | [6] 86 % of control

C=C(C)C1CC2(C)C(C)C(OC(=O)/C(C)=C\C)CCC2C(O)C1=O (stereo not given)
inactive: dose: 15.0 mg/kg/injection, schedule: Q04DX002 (ip), vehicle: distilled water + alcohol 96 % of control | dose: 30.0 mg/kg/injection, schedule: Q04DX002 (ip), vehicle: distilled water + alcohol 104 % of control | dose: 57.5 mg/kg/injection, schedule: Q04DX002 (ip), vehicle: distilled water + alcohol 107 % of control

C=CCCN1CC2CC(C1)N1CCCCC1C2=O (stereo not given)
inactive: dose: 5.25 mg/kg/injection, schedule: Q01DX005 (ip), vehicle: Klucel (hydroxypropylcellulose) (HPC) 102 % of control | dose: 10.5 mg/kg/injection, schedule: Q01DX005 (ip), vehicle: Klucel (hydroxypropylcellulose) (HPC) 103 % of control | dose: 21.0 mg/kg/injection, schedule: Q01DX005 (ip), vehicle: Klucel (hydroxypropylcellulose) (HPC) 100 % of control | dose: 42.0 mg/kg/injection, schedule: Q01DX005 (ip), vehicle: Klucel (hydroxypropylcellulose) (HPC) 103 % of control

S=c1n(-c2ccc(Cl)cc2)c2nc3ccccc3nc(/c2=N\Nc2cc(Cl)ccc2Cl)n1-c1ccc(Br)cc1
inactive: [13] 100 % of control | [14] 105 % of control | [15] 97 % of control
